In ChEMBL document CHEMBL3808310, “New anti-inflammatory sterols from a gorgonian Pinnigorgia sp” (2016):

Experiments:
[1] = tested on: RAW264.7; test: Antiinflammatory activity in mouse RAW264.7 cells assessed as reduction in LPS-induced iNOS protein levels at 10 uM preincubated for 10 mins followed by LPS challenge for 16 hrs by Western blot analysis; format: functional; parameters: scale not given: the % may be the effect or the level left
[2] = tested on: RAW264.7; test: Antiinflammatory activity in mouse RAW264.7 cells assessed as reduction in LPS-induced COX-2 protein levels at 10 uM preincubated for 10 mins followed by LPS challenge for 16 hrs by Western blot analysis; format: functional; parameters: scale not given: the % may be the effect or the level left

SMILES | Activity [1] [%] | Activity [2] [%]
CC(C)[C@@H](C)/C=C/[C@@H](C)[C@H]1CC[C@H]2C3=C(CC[C@]12C)[C@@]1(C)CC[C@H](O)C[C@]12O[C@@H]2[C@@H]3O | 41.1 | 54
C[C@@H]1C[C@H]2[C@@H]3CCC4=CC(=O)C=C[C@]4(C)[C@@]3(F)[C@@H](O)C[C@]2(C)[C@@]1(O)C(=O)CO [DEXAMETHASONE] | 9.6 | 1.7
CC(=O)OCC[C@]1(C)[C@@H]([C@H](C)CC[C@H](C)C(C)C)CC[C@H]1C1=C[C@H](O)[C@@]2(O)C[C@@H](O)CC[C@]2(C)C1=O | 33.2 | 54
